# Like-named read-outs stand apart in the source and are kept apart here.
# What was measured:
# [1] = system: Hep 3B human hepatic cell line; conditions: 62.5, 125, 250 μg/ml, 1 h before X/XO, MTT after 12 h
# Experimental: (§1) The cells were seeded in a 96-well culture plate, in a proportion of 5×10^4 cells per well, in a final volume of 50 μl.
# One hundred μl of Mangafodipir solution at various concentrations (62.5, 125, 250 μg/ml) were deposited into each well (three wells per concentration tested).
# [2] = spectrophotometry at 340 nm for 5 minutes
# Experimental: The glutathione reductase activity was assayed using the kit: “Glutathione reductase assay kit” marketed by the company Calbiochem. The reaction mixture is analyzed by spectrophotometry at 340 nm for 5 minutes.
# [3] = 75.7 μg of Mangafodipir, 10 mM H2O2, pH 7.4
# Experimental: The catalase activity was assayed according to the method described by AEBI [Methods Enzymol., 105, 121-126, (1984)]. The decrease in optical density (OD) at 240 nm of a solution of 10 mM H2O2 in phosphate buffer (50 mM of Na2HPO4/KH2PO4, 0.1 mM EDTA, pH 7.4) was measured in the presence of 75.7 μg of Mangafodipir or, by way of reference, in the presence of 1 unit of bovine catalase.
# [4] = system: acetaminophen-induced acute hepatic failure; conditions: for survival rate: 24 hours after APAP 1000 mg/kg; for number of surviving animals: n = 12
# Experimental: Intraperitoneal injection of acetaminophen into mice induces severe hepatotoxicity, the degree of which can be evaluated by animal survival and macroscopic and microscopic examination of the livers.
# The Mangafodipir (marketed under the name […]™ by Nicomed-Amersham) is administered in the form of a bolus, intraperitoneally.
# The acetaminophen (APAP), in solution at 100 mg/ml in PBS, at pH 7.4, is administered intraperitoneally.
# In a first series of experiments, one group of mice was given a dose of 1000 mg/kg of acetaminophen; a second group was given a dose of 1000 mg/kg of acetaminophen, and a dose of 10 mg/kg of Mangafodipir administered either 2 h before the acetaminophen, or 6 h after; a control group was given Mangafodipir alone (10 mg/kg), or PBS alone.
# Animal survival was monitored for 24 hours after the administration of acetaminophen.
# [5] = Experimental: The SOD activity of a chemical compound can be determined by the NBT (nitro blue tetrazolium) reduction method according to the technique described by Beauchamp and Fridovich [Anal. Biochem., 44(1), 276-87, (1971)].
# The test is carried out at 25° C. in a final volume of buffer of 0.8 ml (50 mM TRIS/HCl, pH 7.6), containing 22 μM of xanthine, 500 U/ml of catalase and 0.2 U/ml of xanthine oxidase. The reduction of NBT, in the presence of 1.5 μg of Mangafodipir or, as a control, in the absence of Mangafodipir, is measured every 30 seconds for 5 minutes. One SOD unit (U SOD) is defined by the amount of enzyme capable of inhibiting the NBT reduction rate by 50%.
# [6] = system: Hep 3B human hepatic cell line; conditions: 62.5, 125, 250 μg/ml, 1 h before H2O2, MTT after 12 h
# Experimental: The Hep 3B human hepatic cell line was also used for these experiments.
# as §1
# One hundred μl of Mangafodipir solution at various concentrations (62.5, 125, 250 μg/ml) were deposited into each well (three wells per concentration tested). After incubation for one hour, 50 μl of a solution of H2O2 at 4 mM were deposited into each well.
# [7] = system: acetaminophen-induced acute hepatic failure; assay: Animal survival in acetaminophen-induced acute hepatic failure, comparison of Mangafodipir, MnTBAP and CuDIPS (Example 7); format: in vivo, mice; conditions: for number of surviving animals: 10 mg/kg bolus 2 h before 1000 mg/kg APAP, n = 12
# Experimental: The Mangafodipir, the MnTBAP or the CuDIPS are administered in the form of a bolus, in the preventive capacity, 2 hours before the acetaminophen.
# Animal survival is monitored for 24 hours after the administration of acetaminophen.
# [8] = system: acetaminophen-induced acute hepatic failure; conditions: mice given acetaminophen
# From the text: In each of the groups, the livers of several animals were removed in order to perform a histological study.
substance,measurement,setting,value
Manganese dipyridoxyl phosphate [Mangafodipir],mortality of hepatic cells under superoxide anion-mediated oxidative stress,[1],prevents the mortality of hepatic cells
same,glutathione reductase activity,[2],19.9±1.75 mU glutathione reductase per milligram of Mangafodipir
same,catalase activity,[3],2 U catalase per milligram of Mangafodipir
same,survival rate,[4]; Mangafodipir after acetaminophen (curative protocol),greater than 41%
same,survival rate,[4]; Mangafodipir before acetaminophen (preventive protocol),about 66%
same,number of surviving animals,"[4]; Group III preventive, 10 mg/kg i.p. 2 h before 1000 mg/kg APAP, time 0 h",12
same,number of surviving animals,"[4]; Group III preventive, 10 mg/kg i.p. 2 h before 1000 mg/kg APAP, time 6 h",12
same,number of surviving animals,"[4]; Group III preventive, 10 mg/kg i.p. 2 h before 1000 mg/kg APAP, time 8 h",12
same,number of surviving animals,"[4]; Group III preventive, 10 mg/kg i.p. 2 h before 1000 mg/kg APAP, time 9 h",12
same,number of surviving animals,"[4]; Group III preventive, 10 mg/kg i.p. 2 h before 1000 mg/kg APAP, time 10 h",11
same,number of surviving animals,"[4]; Group III preventive, 10 mg/kg i.p. 2 h before 1000 mg/kg APAP, time 11 h",11
same,number of surviving animals,"[4]; Group III preventive, 10 mg/kg i.p. 2 h before 1000 mg/kg APAP, time 12 h",11
same,number of surviving animals,"[4]; Group III preventive, 10 mg/kg i.p. 2 h before 1000 mg/kg APAP, time 13 h",10
same,number of surviving animals,"[4]; Group III preventive, 10 mg/kg i.p. 2 h before 1000 mg/kg APAP, time 14 h",10
same,number of surviving animals,"[4]; Group III preventive, 10 mg/kg i.p. 2 h before 1000 mg/kg APAP, time 15 h",10
same,number of surviving animals,"[4]; Group III preventive, 10 mg/kg i.p. 2 h before 1000 mg/kg APAP, time 16 h",9
same,number of surviving animals,"[4]; Group III preventive, 10 mg/kg i.p. 2 h before 1000 mg/kg APAP, time 17 h",9
same,number of surviving animals,"[4]; Group III preventive, 10 mg/kg i.p. 2 h before 1000 mg/kg APAP, time 18 h",9
same,number of surviving animals,"[4]; Group III preventive, 10 mg/kg i.p. 2 h before 1000 mg/kg APAP, time 20 h",9
same,number of surviving animals,"[4]; Group III preventive, 10 mg/kg i.p. 2 h before 1000 mg/kg APAP, time 22 h",8
same,number of surviving animals,"[4]; Group III preventive, 10 mg/kg i.p. 2 h before 1000 mg/kg APAP, time 24 h",8
same,number of surviving animals,"[4]; Group IV curative, 10 mg/kg i.p. 6 h after 1000 mg/kg APAP, time 0 h",12
same,number of surviving animals,"[4]; Group IV curative, 10 mg/kg i.p. 6 h after 1000 mg/kg APAP, time 6 h",12
same,number of surviving animals,"[4]; Group IV curative, 10 mg/kg i.p. 6 h after 1000 mg/kg APAP, time 8 h",11
same,number of surviving animals,"[4]; Group IV curative, 10 mg/kg i.p. 6 h after 1000 mg/kg APAP, time 9 h",11
same,number of surviving animals,"[4]; Group IV curative, 10 mg/kg i.p. 6 h after 1000 mg/kg APAP, time 10 h",10
same,number of surviving animals,"[4]; Group IV curative, 10 mg/kg i.p. 6 h after 1000 mg/kg APAP, time 11 h",9
same,number of surviving animals,"[4]; Group IV curative, 10 mg/kg i.p. 6 h after 1000 mg/kg APAP, time 12 h",9
same,number of surviving animals,"[4]; Group IV curative, 10 mg/kg i.p. 6 h after 1000 mg/kg APAP, time 13 h",8
same,number of surviving animals,"[4]; Group IV curative, 10 mg/kg i.p. 6 h after 1000 mg/kg APAP, time 14 h",8
same,number of surviving animals,"[4]; Group IV curative, 10 mg/kg i.p. 6 h after 1000 mg/kg APAP, time 15 h",8
same,number of surviving animals,"[4]; Group IV curative, 10 mg/kg i.p. 6 h after 1000 mg/kg APAP, time 16 h",7
same,number of surviving animals,"[4]; Group IV curative, 10 mg/kg i.p. 6 h after 1000 mg/kg APAP, time 17 h",7
same,number of surviving animals,"[4]; Group IV curative, 10 mg/kg i.p. 6 h after 1000 mg/kg APAP, time 18 h",7
same,number of surviving animals,"[4]; Group IV curative, 10 mg/kg i.p. 6 h after 1000 mg/kg APAP, time 20 h",6
same,number of surviving animals,"[4]; Group IV curative, 10 mg/kg i.p. 6 h after 1000 mg/kg APAP, time 22 h",6
same,number of surviving animals,"[4]; Group IV curative, 10 mg/kg i.p. 6 h after 1000 mg/kg APAP, time 24 h",5
same,rate of reduction of NBT,"[5]; 1.5 μg of Mangafodipir in reaction mixture, control 0.0302/minute",0.01556 min⁻¹
same,SOD activity,[5]; 1 U SOD inhibits NBT reduction rate by 50%,680 U SOD per milligram of Mangafodipir
same,mortality of hepatic cells under hydrogen peroxide-mediated oxidative stress,[6],prevents the mortality of hepatic cells
same,number of surviving animals,[7]; time 0 h,12
same,number of surviving animals,[7]; time 6 h,12
same,number of surviving animals,[7]; time 8 h,12
same,number of surviving animals,[7]; time 9 h,12
same,number of surviving animals,[7]; time 10 h,11
same,number of surviving animals,[7]; time 11 h,11
same,number of surviving animals,[7]; time 12 h,11
same,number of surviving animals,[7]; time 13 h,10
same,number of surviving animals,[7]; time 14 h,10
same,number of surviving animals,[7]; time 15 h,10
same,number of surviving animals,[7]; time 16 h,9
same,number of surviving animals,[7]; time 17 h,9
same,number of surviving animals,[7]; time 18 h,9
same,number of surviving animals,[7]; time 20 h,9
same,number of surviving animals,[7]; time 22 h,8
same,number of surviving animals,[7]; time 24 h,8
same,effect on survival rate,"[7]; 10 mg/kg preventively, 1000 mg/kg APAP, 24 h",increases the survival rate in a manner at least equal to the MnTBAP
same,"apoptotic lesions in liver, treated versus not treated",[8],considerably fewer apoptotic lesions
